Reference: patent publication US8334235B2, “Thiadiazolyloxyphenylamidines and use thereof as fungicides” (Bayer Cropscience AG, priority 2008, dated 2012)

Experiments:
log P (pH 2.3) = assay type: physicochemical
Puccinia triticina [1] = assay: Puccinia triticina test (wheat)/curative; assay type: in vivo; conditions: 192 h, 500 ppm active substance, curative, evaluation 8 days after inoculation, read-out: degree of effectiveness
Method: (§1) • Solvent: 50 parts by weight of N,N-dimethylacetamide • Emulsifier: 1 part by weight of alkylaryl polyglycol ether (polyoxyethylene (16) tristearylphenyl ether)
(§2) To prepare a suitable active substance composition, 1 part by weight of active substance is mixed with the given amounts of solvent and emulsifier and the concentrate is diluted to the desired concentration using water.
For the testing of curative effectiveness, young plants are sprayed with a suspension of spores of Puccinia triticina. The plants remain in an incubation chamber at 20° C. and 100% relative humidity for 48 hours and are then sprayed with the active substance composition in the application rate given. The plants are placed in a greenhouse at a temperature of approximately 20° C. and a relative humidity of approximately 80%.
(§3) Evaluation is carried out 8 days after the inoculation. In this connection, 0% means a degree of effectiveness corresponding to that of the control, while a degree of effectiveness of 100% means that no infestation is observed.

Puccinia triticina [2] = assay: Puccinia triticina test (wheat)/protective; assay type: in vivo; conditions: 192 h, 500 ppm active substance, protective, evaluation 8 days after inoculation, read-out: degree of effectiveness
Method: as §1, §2
For the testing of protective effectiveness, young plants are sprayed with the active substance composition in the application rate given. After the spray coating has been dried on, the plants are sprayed with a suspension of spores of Puccinia triticina. The plants remain in an incubation chamber at 20° C. and 100% relative humidity for 48 hours. The plants are placed in a greenhouse at a temperature of approximately 20° C. and a relative humidity of approximately 80%.
as §3

Alternaria solani = assay: Alternaria test (tomato)/protective; assay type: in vivo; conditions: 72 h, 100 ppm active substance, protective, evaluation 3 days after inoculation, read-out: degree of effectiveness
Method: (§4) • Solvents: 24.5 parts by weight of acetone • 24.5 parts by weight of dimethylacetamide • Emulsifier: 1 part by weight of alkylaryl polyglycol ether (polyoxyethylene (16) tristearylphenyl ether)
To prepare a suitable active substance composition, 1 part by weight of substance is mixed with the given amounts of solvents and emulsifier and the concentrate is diluted to the desired concentration using water.
For the testing of protective effectiveness, young plants are sprayed with the active substance composition in the application rate given. After the spray coating has been dried on, the plants are inoculated with an aqueous suspension of spores of Alternaria solani. The plants are then placed in an incubation chamber at approximately 20° C. and 100% relative humidity.
Evaluation is carried out 3 days after the inoculation. In this connection, 0% means a degree of effectiveness corresponding to that of the control, while a degree of effectiveness of 100% means that no infestation is observed.

[3] = system: bean rust pathogen Uromyces appendiculatus; assay: Uromyces test (beans)/protective; assay type: in vivo; conditions: 240 h, 100 ppm active substance, protective, evaluation 10 days after inoculation, read-out: degree of effectiveness
Method: as §4
To prepare a suitable active substance composition, 1 part by weight of active substance is mixed with the given amounts of solvents and emulsifier and the concentrate is diluted to the desired concentration using water.
For the testing of protective effectiveness, young plants are sprayed with the active substance composition in the application rate given. After the spray coating has been dried on, the plants are inoculated with an aqueous suspension of the spores of the bean rust pathogen Uromyces appendiculatus and then remain in an incubation chamber at approximately 20° C. and 100% relative humidity for 1 day.
The plants are then placed in a greenhouse at approximately 21° C. and a relative humidity of approximately 90%.
Evaluation is carried out 10 days after the inoculation. In this connection, 0% means a degree of effectiveness corresponding to that of the control, while a degree of effectiveness of 100% means that no infestation is observed.

Sphaerotheca fuliginea = assay: Sphaerotheca test (cucumber)/protective; assay type: in vivo; conditions: Podosphaera fuliginea, 168 h, 500 ppm active substance, protective, evaluation 7 days after inoculation, read-out: degree of effectiveness
Method: • Solvent: 49 parts by weight of N,N-dimethylformamide • Emulsifier: 1 part by weight of alkylaryl polyglycol ether (polyoxyethylene (16) tristearylphenyl ether) To prepare a suitable active substance composition, 1 part by weight of active substance is mixed with the given amounts of solvents and emulsifier and the concentrate is diluted to the desired concentration using water. For the testing of protective effectiveness, young cucumber plants are sprayed with the active substance composition in the application rate given. One day after treatment, the plants are inoculated with a suspension of spores of Sphaerotheca fuliginea. The plants are then placed in a greenhouse at 70% relative humidity and a temperature of 23° C. Evaluation is carried out 7 days after the inoculation. In this connection, 0% means a degree of effectiveness corresponding to that of the control, while a degree of effectiveness of 100% means that no infestation is observed.

Row | logP (log P (pH 2.3)) | Structure (SMILES) | pest or weed control at 500 ppm (Puccinia triticina [1]) [%] | pest or weed control at 500 ppm (Puccinia triticina [2]) [%] | pest or weed control at 100 ppm (Alternaria solani) [%] | pest or weed control at 100 ppm [3] [%] | pest or weed control at 500 ppm (Sphaerotheca fuliginea) [%]
1 | 4.5 | Cc1cc(N)c(Cl)cc1Oc1nc(CCc2ccc(Cl)cc2)ns1 [2-Chloro-4-({3-[2-(4-chlorophenyl)ethyl]-1,2,4-thiadiazol-5-yl}oxy)-5-methylaniline] |  |  |  |  | 
2 | 3.5 | Cc1cc(N)c(Cl)cc1Oc1nc(C2(Cl)CC2)ns1 [2-Chloro-4-{[3-(1-chlorocyclopropyl)-1,2,4-thiadiazol-5-yl]oxy}-5-methylaniline] |  |  |  |  | 
3 | 3.67 | Cc1ccc(S(=O)(=O)c2nc(C3(Cl)CC3)ns2)cc1 [3-(1-Chlorocyclopropyl)-5-{(4-methylphenyl)sulphonyl}-1,2,4-thiadiazole] |  |  |  |  | 
4 | 4.62 | Cc1ccc(S(=O)(=O)c2nc(CCc3ccc(Cl)cc3)ns2)cc1 [3-[2-(4-Chlorophenyl)ethyl]-5-[(4-methylphenyl)sulphonyl]-1,2,4-thiadiazole] |  |  |  |  | 
5 | 3.36 | O=c1oc(CCc2ccc(Cl)cc2)ns1 [5-[2-(4-Chlorophenyl)ethyl]-1,3,4-oxathiazol-2-one] |  |  |  |  | 
6 |  | CCN(C)/C=N/c1cc(C)c(Oc2nc(C(C)(C)C)ns2)cc1Cl [Compound 1, N′-{4-[(3-(tert-butyl)-1,2,4-thiadiazol-5-yl)oxy]-2-chloro-5-methylphenyl}-N-ethyl-N-methylimidoformamide] | ≥ 70 | ≥ 70 | ≥ 70 | ≥ 70 | ≥ 70
7 |  | CCN(C)/C=N/c1cc(C)c(Oc2nc(C(C)(C)C)ns2)cc1Br [Compound 2, N′-{2-bromo-4-[(3-(tert-butyl)-1,2,4-thiadiazol-5-yl)oxy]-5-methylphenyl}-N-ethyl-N-methylimidoformamide] | ≥ 70 | ≥ 70 | ≥ 70 | ≥ 70 | ≥ 70
8 |  | CCN(C)/C=N/c1cc(C)c(Oc2nc(C(C)c3ccc(Cl)cc3)ns2)cc1Cl (stereo not shown) [Compound 6] | ≥ 70 | ≥ 70 |  | ≥ 70 | ≥ 70
9 |  | Cc1cc(N=CN(C)C(C)C)c(Cl)cc1Oc1nc(C(C)c2ccc(Cl)cc2)ns1 (stereo not shown) [Compound 8, N′-[2-chloro-4-({3-[1-(4-chlorophenyl)ethyl]-1,2,4-thiadiazol-5-yl}oxy)-5-methylphenyl]-N-methyl-N-(propan-2-yl)imidoformamide] |  |  |  | ≥ 70 | ≥ 70
10 | 2.64 | Cc1cc(/N=C\N2CCCCC2)c(Cl)cc1Oc1nc(CCc2ccc(Cl)cc2)ns1 [Compound 10, 2-chloro-4-({3-[2-(4-chlorophenyl)ethyl]-1,2,4-thiadiazol-5-yl}oxy)-5-methyl-N-[(Z)-piperidin-1-ylmethylidene]aniline] |  |  |  |  | 
11 |  | CCN(C)/C=N/c1cc(C)c(Oc2nc(Cc3ccccc3)ns2)cc1Cl [Compound 14, N′-{4-[(3-benzyl-1,2,4-thiadiazol-5-yl)oxy]-2-chloro-5-methylphenyl}-N-ethyl-N-methylimidoformamide] | ≥ 70 | ≥ 70 | ≥ 70 | ≥ 70 | ≥ 70
12 |  | CCN(C)C=Nc1cc(C)c(Oc2nc(/C=C/c3ccc(F)cc3)ns2)cc1Cl [Compound 15, N′-[2-chloro-4-({3-[(E)-2-(4-fluorophenyl)ethenyl]-1,2,4-thiadiazol-5-yl}oxy)-5-methylphenyl]-N-ethyl-N-methylimidoformamide] | ≥ 70 | ≥ 70 | ≥ 70 | ≥ 70 | ≥ 70
13 |  | CCN(C)C=Nc1cc(C)c(Oc2nc(C3(c4ccc(Cl)cc4)CC3)ns2)cc1Cl [Compound 17, N′-[2-chloro-4-({3-[1-(4-chlorophenyl)cyclopropyl]-1,2,4-thiadiazol-5-yl}oxy)-5-methylphenyl]-N-ethyl-N-methylimidoformamide] | ≥ 70 | ≥ 70 | ≥ 70 | ≥ 70 | ≥ 70
14 |  | CCN(C)/C=N/c1cc(C)c(Oc2nc(Cc3ccc(Cl)cc3)ns2)cc1Cl [Compound 18, N′-(2-chloro-4-{[3-(4-chlorobenzyl)-1,2,4-thiadiazol-5-yl]oxy}-5-methylphenyl)-N-ethyl-N-methylimidoformamide] | ≥ 70 | ≥ 70 |  | ≥ 70 | ≥ 70
15 |  | CCCN(C)/C=N/c1cc(C)c(Oc2nc(C(C)(C)C)ns2)cc1Cl [Compound 24, N′-{4-[(3-(tert-butyl)-1,2,4-thiadiazol-5-yl)oxy]-2-chloro-5-methylphenyl}-N-methyl-N-propylimidoformamide] | ≥ 70 | ≥ 70 | ≥ 70 |  | ≥ 70
16 |  | CCN(C)C=Nc1cc(C)c(Oc2nc(C3(C)CC3(Cl)Cl)ns2)cc1Cl (stereo not shown) [Compound 32, N′-(2-chloro-4-{[3-(2,2-dichloro-1-methylcyclopropyl)-1,2,4-thiadiazol-5-yl]oxy}-5-methylphenyl)-N-ethyl-N-methylimidoformamide] | ≥ 70 | ≥ 70 | ≥ 70 | ≥ 70 | ≥ 70
17 |  | CCN(C)/C=N/c1cc(C)c(Oc2nc(Cc3ccc(Br)cc3)ns2)cc1Cl [Compound 33, N′-(4-{[3-(4-bromobenzyl)-1,2,4-thiadiazol-5-yl]oxy}-2-chloro-5-methylphenyl)-N-ethyl-N-methylimidoformamide] | ≥ 70 | ≥ 70 | ≥ 70 |  | ≥ 70
18 |  | CCN(C)/C=N/c1cc(C)c(Oc2nc(Cc3ccc(Cl)cc3Cl)ns2)cc1Cl [Compound 38, N′-(2-chloro-4-{[3-(2,4-dichlorobenzyl)-1,2,4-thiadiazol-5-yl]oxy}-5-methylphenyl)-N-ethyl-N-methylimidoformamide] | ≥ 70 | ≥ 70 |  | ≥ 70 | ≥ 70
19 |  | CCN(C)/C=N/c1cc(C)c(Oc2nc(C(C)(C)CCl)ns2)cc1Cl [Compound 39, N′-(2-chloro-4-{[3-(1-chloro-2-methylpropan-2-yl)-1,2,4-thiadiazol-5-yl]oxy}-5-methylphenyl)-N-ethyl-N-methylimidoformamide] | ≥ 70 | ≥ 70 | ≥ 70 | ≥ 70 | ≥ 70
20 |  | CCN(C)/C=N/c1cc(C)c(Oc2nc(Cc3ccc(F)cc3F)ns2)cc1Cl [Compound 40, N′-(2-chloro-4-{[3-(2,4-difluorobenzyl)-1,2,4-thiadiazol-5-yl]oxy}-5-methylphenyl)-N-ethyl-N-methylimidoformamide] | ≥ 70 | ≥ 70 | ≥ 70 |  | ≥ 70
